pEC50, pIC50: −log10 of the molar value.
Legend:
Plasmodium falciparum [1] = assay: MMV: Inhibition of Plasmodium falciparum 3D7 at 5uM compound concentration.; type: functional
Plasmodium falciparum [2] = assay: MMV: Inhibition of Plasmodium falciparum 3D7 (EC50).; type: functional, organism-based
Plasmodium falciparum [3] = assay: MMV: Inhibition of Plasmodium falciparum K1 (EC50).; type: functional, organism-based
Trypanosoma cruzi = assay: MMV: Inhibition of Trypanosoma cruzi (Tulahuen C4 LacZ) (Chagas in vitro).; type: functional, organism-based
[4] = system: Trypanosoma brucei brucei; assay: MMV: Inhibition of Trypanosoma brucei brucei (Squib 427) (HAT in vitro).; type: functional, organism-based
[5] = system: Trypanosoma brucei rhodesiense; assay: MMV: Inhibition of Trypanosoma brucei rhodesiense (STIB 900) (HAT in vitro).; type: functional, organism-based
Leishmania infantum = assay: MMV: Inhibition of Leishmania infantum (MHOM/MA/BE/67) in vitro.; type: functional, organism-based
[6] = MMV: Cytotoxicity against human fibroblasts (MRC-5) cells.; settings: MRC-5 cells (human fibroblasts)

Row | Compound | inhibition at 5 µM (Plasmodium falciparum [1]) [%] | pEC50 (Plasmodium falciparum [2]) | pEC50 (Plasmodium falciparum [3]) | pIC50 (Trypanosoma cruzi) | pIC50 [4] | pIC50 [5] | pIC50 (Leishmania infantum) | pIC50 [6]
1 | c1ccc(/C2=N/c3ccccc3/N=C(/c3ccccc3)c3ccccc32)cc1 | 99 | 6.18 | 5.96 | 4.58 | 4.78 | 5.34 | 4.78 | < 4.49
2 | Brc1ccc(Nc2nc3ccccc3nc2Nc2ccc(Br)cc2)cc1 | 98 | 5.97 | 6.30 | 5.45 | 5.39 | 5.88 | 5.39 | 5.23
3 | CCCN(CCC)CC(O)COc1ccccc1C(=O)Nc1ccccc1 (stereo not given) | 98 | 6.71 | 7.24 | < 4.49 | < 4.49 | < 4.49 | < 4.49 | < 4.49
4 | Cc1ccc(CSCc2ccc(C(=O)NC3CC3)o2)cc1 | 97 | 6.20 | 5.95 | < 4.49 | < 4.49 | < 4.49 | < 4.49 | < 4.49
5 | Cc1cc(Nc2ccc(OCc3ccccc3)cc2)nc2cc(O)ccc12 | 96 | 6.16 | 6.28 | 5.36 | 4.92 | 5.45 | 4.79 | 4.85
6 | COc1cc(-c2nc(-c3ccc(Sc4ccccc4)cc3)c(-c3ccccc3)[nH]2)cc(OC)c1O | 97 | 6.46 | 6.01 | 4.95 | 5.47 | 5.44 | 4.79 | 5.07
7 | Cc1ccc(-c2cc3nc4c(c(O)n3n2)CCCC4)cc1 | 73 | 6.40 | 5.95 | < 4.49 | 4.81 | 5.43 | < 4.49 | < 4.49
8 | Cc1ccccc1OCCSc1nc2ccc(NC(=O)c3cccs3)cc2s1 | 96 | 6.16 | 5.98 | 5.33 | 5.40 | 5.56 | 4.76 | < 4.49
9 | c1ccc2cc3c(Nc4ccc(N5CCOCC5)cc4)ccnc3cc2c1 | 97 | 6.60 | 6.29 | 5.89 | 6.48 | 6.46 | < 4.49 | < 4.49
10 | CC(C)CCNCC(O)Cn1c2ccccc2c2ccccc21 (stereo not given) | 97 | 6.33 | 6.68 | 5.17 | 6.03 | 6.00 | 5.40 | 4.79
11 | Cc1cc(C)c2c(c1)OCN(Cc1ccccc1Cl)C2 | 98 | 6.57 | 7.00 | < 4.49 | 4.78 | 4.79 | 4.79 | < 4.49
12 | c1ccc2c(NCCc3c[nH]c4ccccc34)c3ccccc3nc2c1 | 97 | 6.52 | 6.18 | 5.72 | 5.98 | 6.07 | 5.92 | 5.40
13 | O=C(Nc1ccc(C23CC4CC(CC(c5ccccc5)(C4)C2)C3)cc1)c1cccs1 | 96 | 6.08 | 5.90 | < 4.49 | < 4.49 | < 4.49 | < 4.49 | < 4.49
14 | CCOC(=O)c1ccc2nc(-c3ccccc3)cc(O)c2c1 | 96 | 6.93 | 6.22 | 5.82 | < 4.49 | < 4.49 | 4.79 | 5.12
15 | COc1ccc(OC)c(C2C3=C(CC(C)(C)CC3=O)N(c3ccc(Cl)c(Cl)c3)C3=C2C(=O)CC(C)(C)C3)c1 | 90 | 6.04 | 5.97 | < 4.49 | 4.78 | 4.79 | < 4.49 | < 4.49
16 | Cc1cccc(N2C(=O)C3C(C2=O)C2(c4ccccc4)C(=O)C3(c3ccccc3)C(c3ccc4c(c3)OCO4)=C2c2ccc3c(c2)OCO3)c1 (stereo not given) | 94 | 6.52 | 6.58 | < 4.49 | < 4.49 | < 4.49 | < 4.49 | < 4.49
17 | COc1ccc(C(C)=O)cc1N1C(=O)C2C(C1=O)C1(c3ccccc3)C(=O)C2(c2ccccc2)C(c2ccc(C)cc2)=C1c1ccc(C)cc1 (stereo not given) | 96 | 6.75 | 6.65 | < 4.49 | < 4.49 | < 4.49 | < 4.49 | < 4.49
18 | Cc1ccc(F)cc1NC(=O)c1cc(Cl)ccc1Nc1ccccc1 | 99 | 6.27 | 6.29 | < 4.49 | < 4.49 | < 4.49 | < 4.49 | < 4.49
19 | OC1=C2C(=Nc3ccccc3SC2c2ccc(Br)cc2)c2ccccc21 (stereo not given) | 97 | 6.25 | 6.02 | 5.44 | 5.39 | 5.57 | 5.36 | < 4.49
20 | Clc1ccc2c(N3CCCC3)ccnc2c1 | 97 | 6.03 | 5.89 | < 4.49 | 4.80 | 4.84 | < 4.49 | < 4.49
21 | COc1cc2c3cc1Oc1c(OC)c(OC)cc4c1C(Cc1ccc(O)c(c1)Oc1ccc(cc1)CC3N(C)CC2)N(C)CC4 (stereo not given) | 96 | 5.90 | 5.92 | 5.44 | 4.84 | 5.34 | 4.92 | 5.35
22 | Cc1ccc(N2C3c4ccccc4N(S(=O)(=O)c4ccc(C)cc4)C2c2ccccc2N3S(=O)(=O)c2ccc(C)cc2)cc1 | 97 | 7.61 | 7.56 | < 4.49 | < 4.49 | 4.78 | 4.79 | < 4.49
23 | CCOc1c(Br)cc(C2C(C(=O)OC)=CN(C)C=C2C(=O)OC)cc1OC | 96 | 6.29 | 5.97 | < 4.49 | < 4.49 | 4.51 | < 4.49 | < 4.49
24 | COc1ccccc1N1C(=N)SC(=Cc2ccc(OCc3ccccc3F)cc2)C1=O | 95 | 6.32 | 6.08 | 4.79 | 5.00 | 5.39 | 4.60 | < 4.49
25 | CCOC(=O)C1=CN(C)C=C(C(=O)OCC)C1c1cc(Br)c(OCC)c(OC)c1 | 97 | 6.29 | 6.02 | 4.87 | 4.81 | 4.86 | < 4.49 | < 4.49

From ChEMBL document CHEMBL2028040, “Malaria Box”
